Measurements from publication PMC10006169, “A phase I trial of LXS196, a protein kinase C (PKC) inhibitor, for metastatic uveal melanoma” (British Journal of Cancer, 2023).

Tested on: patients with MUM
Assay: Adverse events suspected to be study drug related (NCI-CTCAE v4.03)
Type: in vivo, human
Experimental: Routine safety assessments, including laboratory assessments, physical examinations, vital signs and electrocardiograms (ECGs), were conducted at regular intervals throughout the study and more frequently as needed following patient assessment by the treating physician. Adverse events (AEs) were assessed continuously according to the National Cancer Institute Common Terminology Criteria for Adverse Events (NCI-CTCAE) v4.03.

## CC1(N)CCN(c2cccnc2NC(=O)c2nc(-c3ncccc3C(F)(F)F)cnc2N)CC1 [LXS196]
300 mg QD
  Nausea, grade ≥3: 0 n (%)
  Patients with ≥1 AE, all grades: 14 (93.3) n (%)
  Patients with ≥1 AE, grade ≥3: 2 (13.3) n (%)
  Rash, all grades: 3 (20.0) n (%)
  Rash, grade ≥3: 0 n (%)
  Vomiting, all grades: 5 (33.3) n (%)
  Vomiting, grade ≥3: 0 n (%)
500 mg QD
  ALT increased, all grades: 3 (27.3) n (%)
  ALT increased, grade ≥3: 1 (9.1) n (%)
  AST increased, all grades: 4 (36.4) n (%)
  AST increased, grade ≥3: 1 (9.1) n (%)
  Asthenia, all grades: 2 (18.2) n (%)
  Asthenia, grade ≥3: 0 n (%)
  Blood creatinine increased, all grades: 0 n (%)
  Blood creatinine increased, grade ≥3: 0 n (%)
  Constipation, all grades: 0 n (%)
  Constipation, grade ≥3: 0 n (%)
  Diarrhoea, all grades: 4 (36.4) n (%)
  Diarrhoea, grade ≥3: 0 n (%)
  Dry skin, all grades: 0 n (%)
  Dry skin, grade ≥3: 0 n (%)
  Fatigue, all grades: 0 n (%)
  Fatigue, grade ≥3: 0 n (%)
  Hypotension, all grades: 4 (36.4) n (%)
  Hypotension, grade ≥3: 3 (27.3) n (%)
  Nausea, all grades: 8 (72.7) n (%)
  Nausea, grade ≥3: 0 n (%)
  Patients with ≥1 AE, all grades: 10 (90.9) n (%)
  Patients with ≥1 AE, grade ≥3: 4 (36.4) n (%)
  Rash, all grades: 0 n (%)
  Rash, grade ≥3: 0 n (%)
  Vomiting, all grades: 5 (45.5) n (%)
  Vomiting, grade ≥3: 0 n (%)
800 mg QD
  ALT increased, all grades: 0 n (%)
  ALT increased, grade ≥3: 0 n (%)
  AST increased, all grades: 0 n (%)
  AST increased, grade ≥3: 0 n (%)
  Asthenia, all grades: 0 n (%)
  Asthenia, grade ≥3: 0 n (%)
  Blood creatinine increased, all grades: 0 n (%)
  Blood creatinine increased, grade ≥3: 0 n (%)
  Constipation, all grades: 0 n (%)
  Constipation, grade ≥3: 0 n (%)
  Diarrhoea, all grades: 1 (100) n (%)
  Diarrhoea, grade ≥3: 0 n (%)
  Dry skin, all grades: 0 n (%)
  Dry skin, grade ≥3: 0 n (%)
  Fatigue, all grades: 0 n (%)
  Fatigue, grade ≥3: 0 n (%)
  Hypotension, all grades: 1 (100) n (%)
  Hypotension, grade ≥3: 1 (100) n (%)
  Nausea, all grades: 1 (100) n (%)
  Nausea, grade ≥3: 0 n (%)
  Patients with ≥1 AE, all grades: 1 (100) n (%)
  Patients with ≥1 AE, grade ≥3: 1 (100) n (%)
  Rash, all grades: 0 n (%)
  Rash, grade ≥3: 0 n (%)
  Vomiting, all grades: 0 n (%)
  Vomiting, grade ≥3: 0 n (%)
1000 mg QD
  ALT increased, all grades: 1 (25.0) n (%)
  ALT increased, grade ≥3: 0 n (%)
  AST increased, all grades: 0 n (%)
  AST increased, grade ≥3: 0 n (%)
  Asthenia, all grades: 0 n (%)
  Asthenia, grade ≥3: 0 n (%)
  Blood creatinine increased, all grades: 0 n (%)
  Blood creatinine increased, grade ≥3: 0 n (%)
  Constipation, all grades: 0 n (%)
  Constipation, grade ≥3: 0 n (%)
  Diarrhoea, all grades: 4 (100) n (%)
  Diarrhoea, grade ≥3: 0 n (%)
  Dry skin, all grades: 1 (25.0) n (%)
  Dry skin, grade ≥3: 0 n (%)
  Fatigue, all grades: 3 (75.0) n (%)
  Fatigue, grade ≥3: 0 n (%)
  Hypotension, all grades: 2 (50.0) n (%)
  Hypotension, grade ≥3: 1 (25.0) n (%)
  Nausea, all grades: 4 (100) n (%)
  Nausea, grade ≥3: 0 n (%)
  Patients with ≥1 AE, all grades: 4 (100) n (%)
  Patients with ≥1 AE, grade ≥3: 2 (50.0) n (%)
  Rash, all grades: 0 n (%)
  Rash, grade ≥3: 0 n (%)
  Vomiting, all grades: 0 n (%)
  Vomiting, grade ≥3: 0 n (%)
All BID
  ALT increased, all grades: 8 (26.7) n (%)
  ALT increased, grade ≥3: 2 (6.7) n (%)
  AST increased, all grades: 6 (20.0) n (%)
  AST increased, grade ≥3: 2 (6.7) n (%)
  Asthenia, all grades: 7 (23.3) n (%)
  Asthenia, grade ≥3: 0 n (%)
  Blood creatinine increased, all grades: 5 (16.7) n (%)
  Blood creatinine increased, grade ≥3: 0 n (%)
  Constipation, all grades: 3 (10.0) n (%)
  Constipation, grade ≥3: 0 n (%)
  Diarrhoea, all grades: 16 (53.3) n (%)
  Diarrhoea, grade ≥3: 1 (3.3) n (%)
